One may read the IC50 as the point on the concentration scale where inhibition reaches its midpoint.

This is an account of results in patent publication US11046675B2, “Substituted isoquionline derivatives as immunomudulators” (Bristol-Myers Squibb Company, priority 2017, dated 2021).

This assay addresses PD-1/PD-L1 (Homo sapiens (Human), UniProt Q9NZQ7). As to the kind of experiment: PD-1/PD-L1 Homogenous Time-Resolved Fluorescence (HTRF) binding assay. The settings on record: PD-L1-His 10 nM, PD-1-Ig 20 nM, read-out: IC50 (μM) (Range or value). The text has this: The ability of the compounds of formula (I) to bind to PD-L1 was investigated using a PD-1/PD-L1 Homogenous Time-Resolved Fluorescence (HTRF) binding assay.
Homogenous Time-Resolved Fluorescence (HTRF) Binding Assay
The interaction of PD-1 and PD-L1 can be assessed using soluble, purified preparations of the extracellular domains of the two proteins. The PD-1 and PD-L1 protein extracellular domains were expressed as fusion proteins with detection tags, for PD-1, the tag was the Fc portion of Immunoglobulin (PD-1-Ig) and for PD-L1 it was the 6 histidine motif (PD-L1-His). All binding studies were performed in an HTRF assay buffer consisting of dPBS supplemented with 0.1% […] bovine serum albumin and 0.05% (v/v) Tween-20. For the h/PD-L1-His binding assay, inhibitors were pre-incubated with PD-L1-His (10 nM final) for 15m in 4 μl of assay buffer, followed by addition of PD-1-Ig (20 nM final) in 1 μl of assay buffer and further incubation for 15 m. HTRF detection was achieved using europium crypate-labeled anti-Ig (1 nM final) and allophycocyanin (APC) labeled anti-His (20 nM final). Antibodies were diluted in HTRF detection buffer and 5 μl was dispensed on top of the binding reaction. The reaction mixture was allowed to equilibrate for 60 minutes and the resulting signal (665 nm/620 nm ratio) was obtained using an EnVision fluorometer. Additional binding assays were established between the human proteins PD-1-Ig/PD-L2-His (20 & 2 nM, respectively) and CD80-His/PD-L1-Ig (100 & 10 nM, respectively).
Recombinant Proteins: Human PD-1 (25-167) with a C-terminal human Fc domain of immunoglobulin G (Ig) epitope tag [hPD-1 (25-167)-3S-IG] and human PD-L1 (18-239) with a C-terminal His epitope tag [hPD-L1(18-239)-TVMV-His] were expressed in HEK293T cells and purified sequentially by ProteinA affinity chromatography and size exclusion chromatography. Human PD-L2-His and CD80-His was obtained through commercial sources.

Like-named read-outs stand apart in the source and are kept apart here. Where only a bound is given, the exact number is not on record here.

Chain of PD-1/PD-L1 (Q9NZQ7 other isoform, or with tags, fused parts or gaps): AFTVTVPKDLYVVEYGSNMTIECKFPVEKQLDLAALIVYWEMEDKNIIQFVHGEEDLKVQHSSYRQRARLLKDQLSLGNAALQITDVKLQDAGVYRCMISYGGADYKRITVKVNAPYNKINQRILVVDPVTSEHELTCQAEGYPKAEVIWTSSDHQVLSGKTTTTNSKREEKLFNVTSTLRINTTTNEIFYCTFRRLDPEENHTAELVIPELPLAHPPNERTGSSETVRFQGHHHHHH

For the compound `Cc1c(COc2cc3c(c(OCc4cncc(C#N)c4)c2)CN(CC(=O)O)CC3)cccc1-c1ccc2c(c1)OCCO2` [Example 1001, 2-(8-((5-cyanopyridin-3-yl)methoxy)-6-((3-(2,3-dihydrobenzo[b][1,4]dioxin-6-yl)-2-methylbenzyl)-oxy)-3,4-dihydroisoquinolin-2(1H)-yl)acetic acid], for the setting “reported as range class”, the IC50 lay within 0.002 to 0.015 µM.
As for `Cc1c(COc2cc(OCc3cncc(C#N)c3)cc3c2CN(CC(=O)O)CC3)cccc1-c1ccc2c(c1)OCCO2` [Example 1002, 2-(6-((5-cyanopyridin-3-yl)methoxy)-8-((3-(2,3-dihydrobenzo[b][1,4]-dioxin-6-yl)-2-methylbenzyl)oxy)-3,4-dihydroiso-quinolin-2(1H)-yl)acetic acid], the 50% inhibitory concentration (IC50) (reported as range class) fell in the range of 0.051 to 1.5 µM.
Still for that read-out and setting: the same measure for `Cc1c(COc2cc(O)c3c(c2)CCN(CC(=O)O)C3)cccc1-c1ccc2c(c1)OCCO2` [Example 1003, 2-(6-((3-(2,3-dihydrobenzo[b][1,4]dioxin-6-yl)-2-methylbenzyl)oxy)-8-hydroxy-3,4-dihydroisoquinolin-2(1H)-yl)acetic acid]: 0.051 to 1.5 µM; for `Cc1c(COc2ccc3c(c2)CN[C@@H](C(=O)O)C3)cccc1-c1ccc2c(c1)OCCO2` [Example 1004, (R)-7-((3-(2,3-dihydrobenzo[b][1,4]dioxin-6-yl)-2-methylbenzyl)oxy)-1,2,3,4-tetrahydroisoquinoline-3-carboxylic acid]: 1.51 to 10 µM.
For the compound `Cc1c(COc2ccc3c(c2)CN[C@H](C(=O)O)C3)cccc1-c1ccc2c(c1)OCCO2` [Example 1005, (S)-7-((3-(2,3-dihydrobenzo[b][1,4]dioxin-6-yl)-2-methylbenzyl)oxy)-1,2,3,4-tetrahydroisoquinoline-3-carboxylic acid], the IC50 (reported as value) was over 10 µM.
Regarding `Cc1c(COc2cc(OCc3cncc(C#N)c3)c3c(c2Cl)CCN(CC(=O)O)C3)cccc1-c1cccc(OCCCN2CC[C@@H](O)C2)c1C` [Example 1006, (R)-2-(5-chloro-8-((5-cyanopyridin-3-yl)methoxy)-6-((3′-(3-(3-hydroxypyrrolidin-1-yl)propoxy)-2,2′-dimethyl-[1,1′-biphenyl]-3-yl)methoxy)-3,4-dihydroisoquinolin-2(1H)-yl)acetic acid], the IC50 (reported as value) turned out to be 0.002 µM.
For `COC(=O)c1cncc(COc2cc(OCc3cccc(-c4cccc(OCCCN5CC[C@@H](O)C5)c4C)c3C)c(Cl)c3c2CN(CC(=O)O)CC3)c1` [Example 1007, (R)-2-(5-chloro-6-((3′-(3-(3-hydroxypyrrolidin-1-yl)propoxy)-2,2′-dimethyl-[1,1′-biphenyl]-3-yl)methoxy)-8-((5-(methoxycarbonyl)pyridin-3-yl)methoxy)-3,4-dihydro-isoquinolin-2(1H)-yl)acetic acid], where the note is “reported as range class”, the IC50 was 0.016 to 0.05 µM.
Take `COC(=O)CN1CCc2c(Cl)c(OCc3cccc(-c4cccc(OCCCN5CC[C@@H](O)C5)c4C)c3C)cc(OCc3cncc(C(=O)OC)c3)c2C1` [Example 1008, methyl (R)-5-(((5-chloro-6-((3′-(3-(3-hydroxypyrrolidin-1-yl)propoxy)-2,2′-dimethyl-[1,1′-biphenyl]-3-yl)methoxy)-2-(2-methoxy-2-oxoethyl)-1,2,3,4-tetrahydroisoquinolin-8-yl)oxy)methyl)nicotinate]: the IC50 (reported as value) was over 10 µM.
